# From the supplement of paper PMC8882468
# ± gives the standard deviation of the averaged measurements.
# System: HCI-011.E2 (organoid from an ER-positive breast cancer xenograft)
# Experiment: CTG-3D luminescence at 96 h relative to day-0 seeding control (ratio to day 0); higher = more growth / less cytotoxicity; PDxO 3D drug screen, 96 h, CTG-3D normalised to day-0 seeding control.
# Settings: 1 µM
row,SMILES,CTG-3D luminescence at 96 h
1,COc1cc2c(Oc3ccc4[nH]c(C)cc4c3F)ncnc2cc1OCCCN1CCCC1 [cediranib],1.65 ± 0.77
2,CC(C)n1nc(-c2ccc3oc(N)nc3c2)c2c(N)ncnc21 [sapanisertib],0.179 ± 0.0025
3,Cc1cc(Nc2ncnc3ccc(NC4=NC(C)(C)CO4)cc23)ccc1Oc1ccn2ncnc2c1 [tucatinib],1.52 ± 0.77
4,C[C@H](NC(=O)CCC(F)(F)F)C(=O)N[C@@H]1C(=O)N(CCO)c2ncccc2-c2ccccc21 [crenigacestat],1.59 ± 0.29
5,C[C@]12CC[C@@H]3c4ccc(O)cc4C[C@@H](CCCCCCCCC[S+]([O-])CCCC(F)(F)C(F)(F)F)[C@H]3[C@@H]1CC[C@@H]2O (some centres not stated) [fulvestrant],1.37 ± 0.65
6,O=C(c1ccc(F)c(F)c1Nc1ccc(I)cc1F)N1CC(O)([C@@H]2CCCCN2)C1 [cobimetinib],1.6 ± 0.8
7,O=C(/C=C/c1cccnc1)NCCCCC1CCN(C(=O)c2ccccc2)CC1 [FK866],1.48 ± 0.58
8,CS(=O)(=O)c1ccc(C(=O)Nc2ccc(Cl)c(-c3ccccn3)c2)c(Cl)c1 [vismodegib],1.61 ± 0.78
9,C=CCn1c(=O)c2cnc(Nc3ccc(N4CCN(C)CC4)cc3)nc2n1-c1cccc(C(C)(C)O)n1 [adavosertib],1.41 ± 0.85

# Same assay, conditions: 1 µM; days in culture: 74
row,SMILES,CTG-3D luminescence at 96 h
1,COc1cc2c(Oc3ccc4[nH]c(C)cc4c3F)ncnc2cc1OCCCN1CCCC1 [cediranib],2.47
2,CC(C)n1nc(-c2ccc3oc(N)nc3c2)c2c(N)ncnc21 [sapanisertib],0.158
3,Cc1cc(Nc2ncnc3ccc(NC4=NC(C)(C)CO4)cc23)ccc1Oc1ccn2ncnc2c1 [tucatinib],2.18
4,C[C@H](NC(=O)CCC(F)(F)F)C(=O)N[C@@H]1C(=O)N(CCO)c2ncccc2-c2ccccc21 [crenigacestat],2.51
5,C[C@]12CC[C@@H]3c4ccc(O)cc4C[C@@H](CCCCCCCCC[S+]([O-])CCCC(F)(F)C(F)(F)F)[C@H]3[C@@H]1CC[C@@H]2O (some centres not stated) [fulvestrant],2.1
6,O=C(c1ccc(F)c(F)c1Nc1ccc(I)cc1F)N1CC(O)([C@@H]2CCCCN2)C1 [cobimetinib],1.8
7,O=C(/C=C/c1cccnc1)NCCCCC1CCN(C(=O)c2ccccc2)CC1 [FK866],2.77
8,CS(=O)(=O)c1ccc(C(=O)Nc2ccc(Cl)c(-c3ccccn3)c2)c(Cl)c1 [vismodegib],2.12
9,C=CCn1c(=O)c2cnc(Nc3ccc(N4CCN(C)CC4)cc3)nc2n1-c1cccc(C(C)(C)O)n1 [adavosertib],2.2

# Same assay, conditions: 10 µM
row,SMILES,CTG-3D luminescence at 96 h
1,COc1cc2c(Oc3ccc4[nH]c(C)cc4c3F)ncnc2cc1OCCCN1CCCC1 [cediranib],1.44 ± 0.12
2,CC(C)n1nc(-c2ccc3oc(N)nc3c2)c2c(N)ncnc21 [sapanisertib],0.212 ± 0.067
3,Cc1cc(Nc2ncnc3ccc(NC4=NC(C)(C)CO4)cc23)ccc1Oc1ccn2ncnc2c1 [tucatinib],1.91 ± 0.23
4,C[C@H](NC(=O)CCC(F)(F)F)C(=O)N[C@@H]1C(=O)N(CCO)c2ncccc2-c2ccccc21 [crenigacestat],1.95 ± 0.64
5,C[C@]12CC[C@@H]3c4ccc(O)cc4C[C@@H](CCCCCCCCC[S+]([O-])CCCC(F)(F)C(F)(F)F)[C@H]3[C@@H]1CC[C@@H]2O (some centres not stated) [fulvestrant],1.82 ± 0.47
6,O=C(c1ccc(F)c(F)c1Nc1ccc(I)cc1F)N1CC(O)([C@@H]2CCCCN2)C1 [cobimetinib],1.58 ± 0.09
7,O=C(/C=C/c1cccnc1)NCCCCC1CCN(C(=O)c2ccccc2)CC1 [FK866],1.75 ± 0.66
8,CS(=O)(=O)c1ccc(C(=O)Nc2ccc(Cl)c(-c3ccccn3)c2)c(Cl)c1 [vismodegib],1.85 ± 0.35
9,C=CCn1c(=O)c2cnc(Nc3ccc(N4CCN(C)CC4)cc3)nc2n1-c1cccc(C(C)(C)O)n1 [adavosertib],1.73 ± 0.77

# Same assay, conditions: 10 µM; days in culture: 74
row,SMILES,CTG-3D luminescence at 96 h
1,COc1cc2c(Oc3ccc4[nH]c(C)cc4c3F)ncnc2cc1OCCCN1CCCC1 [cediranib],2.28
2,CC(C)n1nc(-c2ccc3oc(N)nc3c2)c2c(N)ncnc21 [sapanisertib],0.168
3,Cc1cc(Nc2ncnc3ccc(NC4=NC(C)(C)CO4)cc23)ccc1Oc1ccn2ncnc2c1 [tucatinib],3
4,C[C@H](NC(=O)CCC(F)(F)F)C(=O)N[C@@H]1C(=O)N(CCO)c2ncccc2-c2ccccc21 [crenigacestat],2.95
5,C[C@]12CC[C@@H]3c4ccc(O)cc4C[C@@H](CCCCCCCCC[S+]([O-])CCCC(F)(F)C(F)(F)F)[C@H]3[C@@H]1CC[C@@H]2O (some centres not stated) [fulvestrant],2.2
6,O=C(c1ccc(F)c(F)c1Nc1ccc(I)cc1F)N1CC(O)([C@@H]2CCCCN2)C1 [cobimetinib],2.39
7,O=C(/C=C/c1cccnc1)NCCCCC1CCN(C(=O)c2ccccc2)CC1 [FK866],2.79
8,CS(=O)(=O)c1ccc(C(=O)Nc2ccc(Cl)c(-c3ccccn3)c2)c(Cl)c1 [vismodegib],3.48
9,C=CCn1c(=O)c2cnc(Nc3ccc(N4CCN(C)CC4)cc3)nc2n1-c1cccc(C(C)(C)O)n1 [adavosertib],2.35

# Same assay, conditions: 100 µM
row,SMILES,CTG-3D luminescence at 96 h
1,COc1cc2c(Oc3ccc4[nH]c(C)cc4c3F)ncnc2cc1OCCCN1CCCC1 [cediranib],0.0243 ± 0.027
2,CC(C)n1nc(-c2ccc3oc(N)nc3c2)c2c(N)ncnc21 [sapanisertib],0.311 ± 0.016
3,Cc1cc(Nc2ncnc3ccc(NC4=NC(C)(C)CO4)cc23)ccc1Oc1ccn2ncnc2c1 [tucatinib],0.142 ± 0.068
4,C[C@H](NC(=O)CCC(F)(F)F)C(=O)N[C@@H]1C(=O)N(CCO)c2ncccc2-c2ccccc21 [crenigacestat],1.98 ± 0.95
5,C[C@]12CC[C@@H]3c4ccc(O)cc4C[C@@H](CCCCCCCCC[S+]([O-])CCCC(F)(F)C(F)(F)F)[C@H]3[C@@H]1CC[C@@H]2O (some centres not stated) [fulvestrant],1.73 ± 0.64
6,O=C(c1ccc(F)c(F)c1Nc1ccc(I)cc1F)N1CC(O)([C@@H]2CCCCN2)C1 [cobimetinib],0.00136 ± 0.0022
7,O=C(/C=C/c1cccnc1)NCCCCC1CCN(C(=O)c2ccccc2)CC1 [FK866],1.55 ± 0.32
8,CS(=O)(=O)c1ccc(C(=O)Nc2ccc(Cl)c(-c3ccccn3)c2)c(Cl)c1 [vismodegib],1.13 ± 0.33
9,C=CCn1c(=O)c2cnc(Nc3ccc(N4CCN(C)CC4)cc3)nc2n1-c1cccc(C(C)(C)O)n1 [adavosertib],1.51 ± 0.68

# Same assay, conditions: 100 µM; days in culture: 74
row,SMILES,CTG-3D luminescence at 96 h
1,COc1cc2c(Oc3ccc4[nH]c(C)cc4c3F)ncnc2cc1OCCCN1CCCC1 [cediranib],0.0101
2,CC(C)n1nc(-c2ccc3oc(N)nc3c2)c2c(N)ncnc21 [sapanisertib],0.26
3,Cc1cc(Nc2ncnc3ccc(NC4=NC(C)(C)CO4)cc23)ccc1Oc1ccn2ncnc2c1 [tucatinib],0.399
4,C[C@H](NC(=O)CCC(F)(F)F)C(=O)N[C@@H]1C(=O)N(CCO)c2ncccc2-c2ccccc21 [crenigacestat],2.45
5,C[C@]12CC[C@@H]3c4ccc(O)cc4C[C@@H](CCCCCCCCC[S+]([O-])CCCC(F)(F)C(F)(F)F)[C@H]3[C@@H]1CC[C@@H]2O (some centres not stated) [fulvestrant],2.02
6,O=C(c1ccc(F)c(F)c1Nc1ccc(I)cc1F)N1CC(O)([C@@H]2CCCCN2)C1 [cobimetinib],0.00131
7,O=C(/C=C/c1cccnc1)NCCCCC1CCN(C(=O)c2ccccc2)CC1 [FK866],2.06
8,CS(=O)(=O)c1ccc(C(=O)Nc2ccc(Cl)c(-c3ccccn3)c2)c(Cl)c1 [vismodegib],1.49
9,C=CCn1c(=O)c2cnc(Nc3ccc(N4CCN(C)CC4)cc3)nc2n1-c1cccc(C(C)(C)O)n1 [adavosertib],1.38

# Same assay, conditions: 625 fM
row,SMILES,CTG-3D luminescence at 96 h
1,COc1cc2c(Oc3ccc4[nH]c(C)cc4c3F)ncnc2cc1OCCCN1CCCC1 [cediranib],1.97 ± 0.74
2,CC(C)n1nc(-c2ccc3oc(N)nc3c2)c2c(N)ncnc21 [sapanisertib],1.74 ± 0.5
3,Cc1cc(Nc2ncnc3ccc(NC4=NC(C)(C)CO4)cc23)ccc1Oc1ccn2ncnc2c1 [tucatinib],1.5 ± 0.23
4,C[C@H](NC(=O)CCC(F)(F)F)C(=O)N[C@@H]1C(=O)N(CCO)c2ncccc2-c2ccccc21 [crenigacestat],1.91 ± 0.4
5,C[C@]12CC[C@@H]3c4ccc(O)cc4C[C@@H](CCCCCCCCC[S+]([O-])CCCC(F)(F)C(F)(F)F)[C@H]3[C@@H]1CC[C@@H]2O (some centres not stated) [fulvestrant],1.62 ± 0.27
6,O=C(c1ccc(F)c(F)c1Nc1ccc(I)cc1F)N1CC(O)([C@@H]2CCCCN2)C1 [cobimetinib],1.85 ± 0.5
7,O=C(/C=C/c1cccnc1)NCCCCC1CCN(C(=O)c2ccccc2)CC1 [FK866],1.87 ± 0.63
8,CS(=O)(=O)c1ccc(C(=O)Nc2ccc(Cl)c(-c3ccccn3)c2)c(Cl)c1 [vismodegib],1.67 ± 0.57
9,C=CCn1c(=O)c2cnc(Nc3ccc(N4CCN(C)CC4)cc3)nc2n1-c1cccc(C(C)(C)O)n1 [adavosertib],1.62 ± 0.45

# Same assay, conditions: 625 fM; days in culture: 74
row,SMILES,CTG-3D luminescence at 96 h
1,COc1cc2c(Oc3ccc4[nH]c(C)cc4c3F)ncnc2cc1OCCCN1CCCC1 [cediranib],2.38
2,CC(C)n1nc(-c2ccc3oc(N)nc3c2)c2c(N)ncnc21 [sapanisertib],2.98
3,Cc1cc(Nc2ncnc3ccc(NC4=NC(C)(C)CO4)cc23)ccc1Oc1ccn2ncnc2c1 [tucatinib],2.84
4,C[C@H](NC(=O)CCC(F)(F)F)C(=O)N[C@@H]1C(=O)N(CCO)c2ncccc2-c2ccccc21 [crenigacestat],2.02
5,C[C@]12CC[C@@H]3c4ccc(O)cc4C[C@@H](CCCCCCCCC[S+]([O-])CCCC(F)(F)C(F)(F)F)[C@H]3[C@@H]1CC[C@@H]2O (some centres not stated) [fulvestrant],2.9
6,O=C(c1ccc(F)c(F)c1Nc1ccc(I)cc1F)N1CC(O)([C@@H]2CCCCN2)C1 [cobimetinib],2.55
7,O=C(/C=C/c1cccnc1)NCCCCC1CCN(C(=O)c2ccccc2)CC1 [FK866],2.32
8,CS(=O)(=O)c1ccc(C(=O)Nc2ccc(Cl)c(-c3ccccn3)c2)c(Cl)c1 [vismodegib],2.36
9,C=CCn1c(=O)c2cnc(Nc3ccc(N4CCN(C)CC4)cc3)nc2n1-c1cccc(C(C)(C)O)n1 [adavosertib],2.46
